Consider eight compounds from ChEMBL document CHEMBL1157675, “Anti-inflammatory diterpenes from the seeds of Vitex negundo” (Bioorg Med Chem, 2010).

Molecules are shown by their SMILES. Active and inactive are the calls of the source. The rule behind the calls is not given here.

For data set [1], the system named is RAW264.7. The data set is described as follows: Antiinflammatory activity in mouse RAW264.7 cells assessed as inhibition of LPS-induced NO production after 24 hrs by Griess reagent method. The format is functional, cell-based. Particulars: RAW264.7, 24 h. Background: Nitrite, measured by Griess reagent, commonly stands in for NO production.
Data set [2] has as its system RAW264.7. The data set is described as follows: Cytotoxicity against mouse RAW264.7 cells up to 50 uM after 24 hrs by MTT assay. The format is cell-based. Particulars: raw264.7, 24 h. In general terms: Tetrazolium assays rely on reduction of a dye to a coloured formazan, in cell work by metabolically active cells.
The subject of data set [3] is RAW264.7. The data set is described as follows: Antiinflammatory activity in LPS-stimulated mouse RAW264.7 cells assessed as reduction of COX2 protein expression at 5 uM after 24 hrs by Western blot analysis relative to control. The format is functional. Particulars: for response, % of control at 5 µM: RAW264.7, 24 h, values are per cent of control.
In data set [4] the test system is RAW264.7. The data set is described as follows: Antiinflammatory activity in LPS-stimulated mouse RAW264.7 cells assessed as reduction of iNOS protein expression at 5 uM after 24 hrs by Western blot analysis relative to control. Particulars: RAW264.7, 24 h, values are per cent of control. Format: functional. Background: In western blotting, separated proteins are transferred to a membrane and probed.

Data set [5] has as its system RAW264.7. The data set is described as follows: Antiinflammatory activity in LPS-stimulated mouse RAW264.7 cells assessed as reduction of COX2 protein expression at 50 uM after 24 hrs by Western blot analysis relative to control. Format: functional. Particulars: RAW264.7, 24 h.
In data set [6] the test system is RAW264.7. The data set is described as follows: Antiinflammatory activity in LPS-stimulated mouse RAW264.7 cells assessed as reduction of iNOS protein expression at 50 uM after 24 hrs by Western blot analysis relative to control. Format: functional. Particulars: RAW264.7, 24 h.

In general, IC50 refers to the concentration that inhibits the measured activity by half. As usually defined, the inhibition is how much of the control response was suppressed. With `COC(=O)/C=C1\CC[C@@]2(O1)[C@H](C)CC[C@H]1C(C)(C)[C@@H](OC(C)=O)CC[C@@]12C` (relative stereo) [NEGUNDOIN A], the IC50 in the data set with RAW264.7 [1] was determined as 9830 nM. For the same compound, the Activity result with RAW264.7 [2] is listed as “Non-toxic”. In addition, the inhibition result with RAW264.7 [3] was “inactive”. Also, the response, % of control at 5 µM with RAW264.7 [4] was found to be 68.2%.

Consider `CC(=O)O[C@H]1CC[C@@]2(C)[C@@H](CC[C@@H](C)[C@]23CC/C(=C\C(=O)O)O3)C1(C)C` (relative stereo) [NEGUNDOIN B], for which the concentration for half-maximal inhibition (IC50) with RAW264.7 [1] was 23400 nM. In addition, the Activity entry in the data set on RAW264.7 [2] is reported as “Non-toxic”.

Take `CC(=O)O[C@H]1CC[C@@]2(C)[C@@H](CC[C@@H](C)[C@]23CC/C(=C\C=O)O3)C1(C)C` (relative stereo) [NEGUNDOIN C]: the IC50 in the data set with RAW264.7 [1] stood at 120 nM. Moreover, the Activity result in the data set on RAW264.7 [2] is reported as “Non-toxic”. Further, the response, % of control at 5 µM in the data set on RAW264.7 [3] amounted to 2.06%; in the data set on RAW264.7 [4], 0.4%.

Take `CO[C@H]1OC(=O)C[C@@]12CC[C@@]1(O2)[C@H](C)CC[C@H]2C(C)(C)[C@@H](OC(C)=O)CC[C@@]21C` (relative stereo) [NEGUNDOIN D]: in the data set on RAW264.7 [1], the IC50 was 4390 nM. The Activity entry in the data set with RAW264.7 [2] is “Non-toxic”. Further, in the data set on RAW264.7 [3], the inhibition result is “inactive”. The response, % of control at 5 µM in the data set with RAW264.7 [4] was found to be 62%.

Turning to `CC(=O)O[C@H]1CC[C@@]2(C)[C@@H](CC[C@@H](C)[C@]23CC[C@@]2(CCO[C@H]2O)O3)C1(C)C` (relative stereo) [NEGUNDOIN E], the IC50 with RAW264.7 [1] came out at 230 nM. Besides, the Activity result in the data set on RAW264.7 [2] is given as “Non-toxic”. For the same compound, the response, % of control at 5 µM in the data set with RAW264.7 [3] was 26.4%; with RAW264.7 [4], 41%.

On to `CC(C)c1ccc(O)c(CC[C@@H]2[C@@H](C)CC[C@H](O)C2(C)C)c1` (relative stereo) [NEGUNDOIN F], for which the IC50 in the data set on RAW264.7 [1] came to 1160 nM. The Activity entry with RAW264.7 [2] is recorded as “Non-toxic”. In addition, the response, % of control at 5 µM with RAW264.7 [3] stood at 59.7%; with RAW264.7 [4] it was 58.2%.

Turning to `C=C[C@@]1(C)CCC2C(=C[C@@H](O)[C@H]3C(C)(C)CCC[C@]23CO)C1=O` (relative stereo) [NEGUNDOIN G], the concentration for half-maximal inhibition (IC50) with RAW264.7 [1] was 700 nM. For the same compound, the Activity entry with RAW264.7 [2] was “Non-toxic”.

As for `COc1ccc2c(c1)c(CC(=O)O)c(C)n2C(=O)c1ccc(Cl)cc1` [INDOMETHACIN], the half-maximal inhibitory concentration (IC50) with RAW264.7 [1] is 45500 nM. In addition, the inhibition at 50 µM was found to be 59.9% with RAW264.7 [5] and 86.5% in the data set on RAW264.7 [6].
